According to publication PMC4596572, “Ligand Discovery for the Alanine-Serine-Cysteine Transporter (ASCT2, SLC1A5) from Homology Modeling and Virtual Screening” (PLoS Computational Biology, 2015):
Like-named read-outs stand apart in the source and are kept apart here.

How the values were obtained:
[1] = system: ASCT2 protein levels in C8161 cells; assay: Western blotting of ASCT2 protein levels; format: cell-based, human; conditions: 5 mM, 48 hours
Description: To ensure these inhibitory effects were not due to changes in ASCT2 protein levels, we examined ASCT2 protein levels by Western blotting 48 hours after incubation with chloroalanine (5 mM), AOC (5 mM) or γ-FBP (5 mM) (Fig 8J). […] For example, γ-FBP is an inhibitor that deprives the cancer cells from nutrients and the activator Chloroalanine can potentially be further developed as a cytotoxic ligand.
Cells (5 × 10^5 per well) were seeded in 24 well plates, allowed to adhere overnight, and then incubated in the presence of 5 mM chloroalanine, AOC or γ-FBP for 48 hours. Cells were detached using Tryple and lysed in lysis buffer (50 μL; 20 mM Tris-HCl, 150 mM NaCl, 1% Triton X-100, 0.5% Na deoxycholate, 0.1% SDS) with protease inhibitor Cocktail III (Bioprocessing Biochemical, California). Protein was measured using micro-BCA method (Pierce) and loaded onto a 4–12% gel (Life Technologies), electrophoresed, and transferred to PVDF membrane. The membrane was blocked with 2.5% (w/v) BSA in PBS-Tween20, and incubated with primary (ASCT2, Cell Signaling; GAPDH, Abcam) and secondary antibodies. Secondary HRP-labeled antibodies (Millipore) were detected using chemiluminescence reagents (Pierce) on a Kodak imager (Kodak).

[2] = molecular target: T1, rat ASCT2 (Rattus norvegicus, UniProt D3ZJ25); assay: Whole-cell patch-clamp recording of ASCT2-associated anion current in transfected HEK293 cells; format: cell-based; conditions: for Km: apparent Km for the active compounds from anion current dose response, called Ki in text for the inhibitors L-DOPS and γ-FBP; for Imax, maximum currents relative to 1 mM alanine: whole-cell anion current, membrane potential 0 mV, internal 130 mM NaSCN and 10 mM alanine, negative = outward current (inhibitor)
T1 construct: The coding region of the cDNA was subcloned into the EcoRI site of the pBK-CMV vector; expressed in transfected cells; host or cells: HEK293 (human embryonic kidney), transient transfection, pBK-CMV vector
T1 sequence (D3ZJ25 1-555): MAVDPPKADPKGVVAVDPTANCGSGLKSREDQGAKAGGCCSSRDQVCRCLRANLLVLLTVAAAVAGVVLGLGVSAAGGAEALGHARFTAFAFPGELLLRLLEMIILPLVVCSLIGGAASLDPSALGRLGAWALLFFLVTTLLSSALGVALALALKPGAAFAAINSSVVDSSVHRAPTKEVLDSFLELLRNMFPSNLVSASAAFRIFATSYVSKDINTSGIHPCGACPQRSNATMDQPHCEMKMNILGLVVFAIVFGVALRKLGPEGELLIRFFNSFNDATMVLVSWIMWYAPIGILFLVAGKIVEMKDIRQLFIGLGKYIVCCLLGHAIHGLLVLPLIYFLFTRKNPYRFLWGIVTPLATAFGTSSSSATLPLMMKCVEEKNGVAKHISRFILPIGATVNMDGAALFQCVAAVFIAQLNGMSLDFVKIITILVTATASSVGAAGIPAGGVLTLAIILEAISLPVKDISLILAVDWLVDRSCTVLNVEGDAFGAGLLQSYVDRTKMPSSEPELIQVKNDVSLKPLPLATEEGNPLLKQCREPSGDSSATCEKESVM
Description: We used transporter-mediated anion current as a measure of transport/inhibition activity […] We have previously shown that anion current is a measure of transport activity, due to the kinetic coupling of transport and anion flux, and this fact is also well established for the homologous glutamate transporters, which have a much more rigorously determined pharmacology. Anion current is activated when the transporter visits certain states in the transport cycle, such as the fully Na^+/substrate occupied state (substrate-induced anion conductance), or the Na^+-bound state (leak conductance). Thus, transported substrates induce anion current and non-transported inhibitors block the leak anion current. […] Functional characterization by patch clamping is a powerful approach when combined with virtual screening that prioritizes molecules from large libraries, but precludes screening of large amounts of compounds due to its labor-intensive nature.
cDNA coding for rat ASCT2 was kindly provided by S. Bröer. The coding region of the cDNA was subcloned into the EcoRI site of the pBK-CMV vector (Stratagene). The cDNA construct was used to transiently transfect human embryonic kidney cells (HEK293, ATCC No. CGL 1573) with leptrime reagent (Polyplus, Ilkrich, France). Transfection was performed as detailed in the supplier’s instructions. Electrophysiological recordings were performed 24–48 h after transfection.
ASCT2-associated whole-cell currents were recorded with an Adams & List EPC7 amplifier (HEKA, Lambrecht, Germany) using voltage-clamp conditions. Open-tip electrode resistances were 2–3 MΩ and the series resistance (R S) was 5–8 MΩ. R S was not compensated in the recordings, as compensation had no effect on the magnitude of the observed currents. The extracellular bath solution contained (in mM): 140 NaMES, 2 MgGluconate2, 2 CaGluconate2, and 10 HEPES (MES = methanesulfonic acid, pH 7.4 / NaOH). The pipette solution contained (in mM): 130 NaSCN, 2 MgCl2, 10 EGTA, 10 HEPES, and 10 L-alanine/cysteine (pH 7.3 / NaOH). Using this intracellular solution, the transporters operate in the Na^+/alanine exchange mode. Here, external alanine is exchanged with internal alanine in the absence of net transport. The exchange mode is associated with the activation of an uncoupled anion current, which was used as an indirect measure of transport activity. The currents were low pass filtered at 3 kHz (EPC7 built-in filter) and digitized with a digitizer board (Digidata 1200, Axon Instruments, Foster City, CA, USA) at a sampling rate of 10–50 kHz (controlled by software, Axon PClamp7). All experiments were performed at room temperature. Rapid solution exchange was essentially performed as described previously. Briefly, substrates and inhibitors were applied to the ASCT2-expressing HEK293 cells with a quartz tube (350 μm tube diameter) positioned at a distance of ≈0.5 mm to the cell. The linear flow rate of the solutions emerging from the opening of the tube was approximately 5–10 cm/s.

[3] = system: C8161 human melanoma cells; assay: MTT cell viability assay; format: cell-based; conditions: 5 mM
Description: Glutamine is a conditionally essential amino acid required for cancer cell growth, being used as fuel source for the TCA cycle, and a carbon and nitrogen source for macromolecule production. We therefore examined cell viability in the presence of chloroalanine (5 mM), AOC (5 mM) and γ-FBP (5 mM) using an MTT assay in C8161 cells (Methods).
Human melanoma cell line C8161 culture was performed as previously described. Media used was DMEM/F12 medium (Life Technologies) containing 5% (v/v) fetal bovine serum (FBS), penicillin-streptomycin solution (Sigma-Aldrich). Cells were maintained at 37°C in a fully humidified atmosphere containing 5% CO2. Inhibitors (chloroalanine, AOC and γ-FBP) were resuspended in H2O, with control cells treated with the appropriate concentrations of vehicle alone.
MTT (3–(4,5–dimethylthiazol–2–yl)–2,5–diphenyl […] bromide; Millipore) cell viability assay was performed as previously described. Briefly, C8161 cells (1 × 10^4/well) were seeded in a flat-bottomed 96–well plate, incubated overnight in media, prior to culture with or without each inhibitor. MTT solution (10 μL) was added to each well for 4 h, prior to addition of 100 μL of isopropanol/HCl solution. Solution was mixed thoroughly and plates immediately read at 570 nm/630 nm in a PolarStar plate reader (BMG). Results were plotted as percentages of the absorbance observed in control wells.

Structure (SMILES) | ASCT2 protein levels [1] | Km [2] [µM] | Imax, maximum currents relative to 1 mM alanine [2] | Cell viability (MTT) [3] | Anion current response / ligand character ([2]; whole-cell current, result in words) | Ki ([2]; absence of alanine, read-out: apparent Ki in the absence of alanine) [µM] | Concentration down to which alanine activation is alleviated ([2]; alanine + compound) [µM] | Ki ([2]; alanine-induced currents (100 μM alanine), read-out: Ki in the presence of alanine) [µM] | Response relative to saturating [alanine] ([2]; outward current)
NC1(C(=O)O)COC1 | no change | 220 ± 20 | 1.17 ± 0.13 | significantly inhibited cell viability | – | – | – | – | –
NC(CCl)C(=O)O (centres unmarked) [Chloroalanine] | reduced the levels of ASCT2 protein | 900 ± 120 | 1.28 ± 0.22 | significantly inhibited cell viability | activated inwardly-directed anion currents | – | – | – | –
O=C(O)C1CC(Cc2ccccc2F)CN1 (centres unmarked) [γ-FBP] | no change | 87 ± 22 | -0.64 ± 0.13 | significantly inhibited cell viability | – | 87 ± 22 | ≥ 100 | 250 ± 75 | -0.64 ± 0.13
